# Experiments:
# Assay type in all cases: in vivo
# corn plants [1] = assay: Field study Colby, KS 2015, yield; conditions: GA3 120 mg/liter, GB 10000 mg/liter, (S)-ABA 9 mg/liter
# From the text: In a field study conducted in Colby, Kans., corn plants were sprayed with solutions containing a non-ionic surfactant (0.25%, v/v) at 15 gallons of spray solution per acre.
# corn plants [2] = assay: Chilling stress study (10° C. for five days) after spray with GA3 or GB; conditions: chilling stress at 10° C. for five days; GA3 120 mg/liter, GB 3000 mg/liter; n = 7 plants
# Experimental: In stress studies, plants were subjected to various stresses. In cold stress studies, after spraying, plants were grown in the greenhouse for an additional 48 hours before being measured and moved to a CMP6050 CONVIRON® chamber kept at 10° C. (Conviron is a registered trademark of Controlled Environments Limited Corporation). Illumination was at ˜225 μMoles, and light:dark conditions were on a 12:12 hour photoperiod. After 120 hours of chilling, plants were removed from the cold, measured, and returned to the greenhouse for 48 hours prior to harvest.
# (§1) Synergy was determined using the following formula, in which a synergy factor is calculated by the Abbott method: % Cexp=A+B−(AB/100), here % Cexp is the expected efficacy and “in which A and B are the increase in growth (or resistance to stress) levels given by the single [plant growth regulators]. If the ratio between the experimentally observed efficacy of the mixture Cobs and the expected efficacy of the mixture is greater than 1, synergistic interactions are present in the mixture” (Gisi, Synergistic Interaction of Fungicides in Mixtures, The American Phytopathological Society, 86:11, 1273-1279, 1996).
# In a greenhouse and growth room study conducted in Long Grove, Ill., corn plants of a commonly grown hybrid were subjected to the following stress regimen: at two days post-foliar application, plants were moved into a controlled environment chamber, where the temperature was maintained at 10° C. with a 12:12 hour photoperiod for five days. At the end of the chilling period, the corn was moved back to the greenhouse for two days before destructive harvest.
# corn [3] = assay: Nutrient stress greenhouse study, GA3 and/or GB, 7 days; conditions: GA3 120 mg/liter, GB 10,000 mg/liter; for Change in Height: n = 7 plants
# Experimental: as §1
# During rainy periods in March-May in the Midwestern United States, nitrogen fertilizer for corn is often limited due to a combination of leaching and mineralization. GB included with GA3 can help overcome the slow growth caused by low nutrients. In a greenhouse study in Long Grove, Ill. we evaluated the effect of GA3, GB and the combination under ‘normal nutrient’ and limited nutrient conditions.
# greenhouse-grown maize [4] = assay: Greenhouse study: effect of GA3 dose +/- GB on growth, 7 and 14 days; conditions: without or with GB 10000 mg/liter
# Experimental: (§2) In several of the following examples, corn was grown in greenhouse conditions, which are defined as follows. Seeds of a commercial hybrid variety were sown in Pro-Mix® BX (Pro-Mix is a registered trademark of Premier Horticulture Ltd.) with the addition of Osmocote (14-14-14) and gypsum in three-liter pots. Greenhouses were kept at 25±3° C. under a 16:8 hour photoperiod, with illumination at canopy level of ˜250 μmoles m^−2s^−1. Corn was typically fertigated with Peters 21-5-20+micronutrients, calcium ammonium nitrate and magnesium sulfate. Typical growth rates for corn under these conditions ranged from 4-5 cm/day.
# (§3) In most greenhouse studies, spray applications were made. These applications were made in a track sprayer outfitted with a 4001E Teejet® nozzle (Teejet is available from and a registered trademark of Spraying Systems Co., Glendale Heights, Ill., USA) and applied at 40 psi. Although application volumes did vary between some studies, generally, 30 gallons/acre of spray solution was applied. Following spray applications, plants were returned to the greenhouse. Typically, experiments were blocked according to plant size, and a randomized complete block design (RCB) was used.
# as §1
# In a separate study, the effect of one rate of GB on various doses of GA3 was studied.
# greenhouse-grown maize [5] = assay: Greenhouse study: effect of GA3 + GB dose on growth, seven days; conditions: GA3 120 mg/liter, GB 0 mg/liter; spray at V3; n = 7 plants
# Experimental: as §2, §3
# In a greenhouse study, plants were sprayed at V3 stage with solutions containing a non-ionic surfactant (0.25%, v/v) at 30 gallons of spray solution/acre and growth was followed for seven days.
# corn [6] = assay: Greenhouse study: Gibberellins, (S)-ABA and Glycine betaine on corn growth; conditions: GA3 or GA4 120 mg/liter, GB 10000 mg/liter, (S)-ABA 8.8 mg/liter
# Experimental: as §2, §3
# When gibberellins are combined with specific ratios of (S)-(+)-abscisic acid (“(S)-ABA”), a surprising enhancement of corn growth after application is often observed. The addition of GB to gibberellin+(S)-ABA spray combinations further increases the growth-promoting activity of the mixtures, as is shown in Table 6.
structure (smiles),measurement,setting,value
"C=C1C[C@]23C[C@@]1(O)CC[C@H]2[C@@]12C=C[C@H](O)[C@@](C)(C(=O)O1)[C@H]2[C@@H]3C(=O)O [GA3, gibberellic acid]",Yield,corn plants [1],188.9 bu/acre
same,Growth Rate,corn plants [2],2.38 cm/day
same,Growth over 9 days,corn plants [2],21.43 cm
same,Leaf Area of L1-L5,corn plants [2],324.24 cm^2
same,Dry Weight,corn [3]; Low Nutrients,2.50 g
same,Leaf Area (L1-L6),corn [3]; Low Nutrients,588.66 cm^2
same,Change in Height,corn [3]; Low Nutrients,30.34 cm
same,Dry Weight,corn [3]; Normal Nutrients,2.86 g
same,Leaf Area (L1-L6),corn [3]; Normal Nutrients,629.45 cm^2
same,Change in Height,corn [3]; Normal Nutrients,38.83 cm
same,"Growth Rate, 0-7 day(s)",greenhouse-grown maize [4]; GA3 30 mg/liter,3.17 cm/day
same,"Growth Rate, 0-14 day(s)",greenhouse-grown maize [4]; GA3 30 mg/liter,6.82 cm/day
same,Plant Growth over 7 days,greenhouse-grown maize [4]; GA3 30 mg/liter,22.2 cm
same,Plant Growth over 14 days,greenhouse-grown maize [4]; GA3 30 mg/liter,47.8 cm
same,"Growth Rate, 0-7 day(s)",greenhouse-grown maize [4]; GA3 60 mg/liter,3.57 cm/day
same,"Growth Rate, 0-14 day(s)",greenhouse-grown maize [4]; GA3 60 mg/liter,7.24 cm/day
same,Plant Growth over 7 days,greenhouse-grown maize [4]; GA3 60 mg/liter,25.0 cm
same,Plant Growth over 14 days,greenhouse-grown maize [4]; GA3 60 mg/liter,50.7 cm
same,"Growth Rate, 0-7 day(s)",greenhouse-grown maize [4]; GA3 120 mg/liter,3.91 cm/day
same,"Growth Rate, 0-14 day(s)",greenhouse-grown maize [4]; GA3 120 mg/liter,7.35 cm/day
same,Plant Growth over 7 days,greenhouse-grown maize [4]; GA3 120 mg/liter,27.3 cm
same,Plant Growth over 14 days,greenhouse-grown maize [4]; GA3 120 mg/liter,51.4 cm
same,"Growth Rate, 0-7 day(s)",greenhouse-grown maize [4]; GA3 240 mg/liter,4.25 cm/day
same,"Growth Rate, 0-14 day(s)",greenhouse-grown maize [4]; GA3 240 mg/liter,7.94 cm/day
same,Plant Growth over 7 days,greenhouse-grown maize [4]; GA3 240 mg/liter,29.8 cm
same,Plant Growth over 14 days,greenhouse-grown maize [4]; GA3 240 mg/liter,55.6 cm
same,Growth Rate,greenhouse-grown maize [5],4.86 cm/day
same,Plant Growth over 7 days,greenhouse-grown maize [5],34.01 cm
same,7 days Change in Height,corn [6],32.5 cm
same,14 days Change in Height,corn [6],62.8 cm
same,Dry Weight,corn [6],8.1 g
